Measurements as given in ChEMBL document CHEMBL1201862, “PubChem BioAssay data set” (2004).
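All cell lines were grown in 96-well plates and treated with compound for 48 hours. GI50 = concentration required for 50% inhibition of growth.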 Calls of active or inactive are those of the source. Cut-off read from the data, not from the text of the source: active = GI50 up to about 1.1 µM and inactive = higher.

Key:
Experiment in all cases: inhibition of tumour cell growth, NCI panel, 48 h
[1] = system: 786-0
[2] = system: EKVX
[3] = system: HCC 2998
[4] = system: HCT-15
[5] = system: Hs-578T
[6] = system: MCF7
[7] = system: NCI-H226
[8] = system: NCI-H460
[9] = system: NCI/ADR-RES
[10] = system: OVCAR-3
[11] = system: OVCAR-5
[12] = system: PC-3
[13] = system: RPMI-8226
[14] = system: RXF 393
[15] = system: SF-295
[16] = system: SK-MEL-28
[17] = system: SK-MEL-5
[18] = system: SNB-75
[19] = system: TK-10
[20] = system: UO-31

CC1=C(C)C1[N+](=O)[O-]
GI50 [1]: > 100 µM (inactive)
GI50 [2]: > 100 µM (inactive)
GI50 [3]: > 100 µM (inactive)
GI50 [4]: > 100 µM
GI50 [5]: > 100 µM (inactive)
GI50 [6]: > 100 µM (inactive)
GI50 [7]: > 100 µM (inactive)
GI50 [8]: > 100 µM (inactive)
GI50 [9]: > 100 µM (inactive)
GI50 [10]: > 100 µM (inactive)
GI50 [11]: > 100 µM (inactive)
GI50 [12]: > 100 µM (inactive)
GI50 [13]: > 100 µM (inactive)
GI50 [14]: > 100 µM (inactive)
GI50 [15]: > 100 µM (inactive)
GI50 [16]: > 100 µM (inactive)
GI50 [17]: > 100 µM (inactive)
GI50 [18]: 26.1 µM (inactive)
GI50 [19]: > 100 µM (inactive)
GI50 [20]: > 100 µM (inactive)
